What was measured:
[1] = target: chymotrypsin (Bos taurus, UniProt P00766); experiment: Protease inhibition assay, chymotrypsin; assay type: biochemical; conditions: substrate SGGPNA; Tris buffer pH 7.5; 37 °C; 5 min pre-incubation; kinetic absorbance 405 nm over 30 min; dilutions 0.011 µM to 45.5 µM; 4-parameter logistic fit
Protocol: A sigmoidal curve of the enzyme inhibition versus the concentration of the inhibitor was observed that was fit to the 4-parameters logistic model. Assays were performed in 96-well plate format.
The assay was performed in a Tris buffer (0.6 g TRIS HCl/100 mL H2O, pH 7.5). The enzyme and the substrate Suc-Gly-Gly-phenylalanine-p-nitroanilide (SGGPNA) were dissolved in the buffer at concentrations of 1 mg/mL. To each well were added 100 µL of buffer, 10 µL of enzyme, and 10 µL of sample. The plate was placed in the spectrophotometer at 37 °C. After 5 min, 100 µL of substrate solution was added to each well, and the plate was placed in the spectrophotometer for the kinetic measurement of the absorbance intensity over 30 min at a wavelength of 405 nm.

[2] = HPLC mobile phase 0.1% TFA/MeCN, six degradation products from TFA catalyzed hydrolysis of the glutamine and Ahp residues, confirmed by LC-MS of the crude extract

## CC(C)C[C@H]1C(=O)N(C)[C@@H](Cc2ccc(O)cc2)C(=O)N[C@@H](C(C)C)C(=O)O[C@H](C)[C@H](NC(=O)[C@H](Cc2ccc(O)cc2)NC(=O)[C@@H](O)Cc2ccc(O)cc2)C(=O)N[C@@H](CCC(N)=O)C(=O)N[C@H]2CC[C@@H](O)N1C2=O [Micropeptin TR1058 (1)]
[1]
  IC50: 6.78 µM
[2]
  Stability under the isolation conditions: extremely unstable
